Tested on: HUVECs
Test: Seahorse analysis of oxygen consumption rate
Assay type: cell-based, human
Details: NaHS 100 μM, NMN 500 μM
Description: Oxygen consumption rates were measured in accordance with manufacturer instructions using Seahorse XF96 analyzer (Seahorse Bioscience). Briefly, 40,000 HUVECs were plated onto XF96 plates and incubated overnight at 37° C./5% CO2. Next day, the media was replaced with XF assay media (DMEM), supplemented with glucose (1 g/L), glutamate (2 mM) and pyruvate (1 mM) and the pH was adjusted to 7.4. NaHS (100 μM) and/or NMN (500 μM) were added at the start of the experiment. Oxygen consumption measurements were made approximately every 8 minutes under basal conditions, and after the addition of oligomycin (1 μM). Experiments were replicated in six wells and averaged for each experimental condition.

## NC(=O)c1ccc[n+]([C@@H]2O[C@H](COP(=O)([O-])O)[C@@H](O)[C@H]2O)c1 [NMN, nicotinamide mononucleotide]
  basal OCR: had no effect
